From US10273228B2, “Hepatitis B viral assembly effectors” (Indiana University Research and Technology Corporation, priority 2015, dated 2019) come the findings set out here.

Read-outs that look alike come from different tables or passages of the source.

The subject of data set [1] is HBV viral load, AD38 cells. The data set can be described thus: Activity of test compounds on viral production from AD38 cells (viral load by quantitative PCR of the core sequence in supernatant). Format: cell-based, Hepatitis B virus. Particulars: 10 μM compound, 6 days at 37° C., vs DMSO control wells; for activity at 10 µM: Hepatitis B virus, 144 h, read-out: AD38 Viral Load (CpAM/DMSO %) at 10 μM. In short, it runs like this: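 Cells seeded at 50,000/well on collagen-coated plates and exposed for 6 days at 37 °C to compound at 1, 3 or 10 μM final (1.0% DMSO). Supernatant viral DNA measured by TaqMan qPCR of the core sequence against known standards, compared with DMSO control wells.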

Data set [2] relates to AD38 cells. The data set can be described thus: AD38 viability normalized to DMSO control. Format: cell-based. Particulars: 10 μM compound, vs DMSO control. Here is the method:
AD38 cells were then re-suspended with 10 mL of treatment medium and counted. Wells of a collagen coated 96-well NUNC microtiter plate were seeded at 50,000/well in 180 μL of treatment medium, and 20 μL of either 10% DMSO (Control) or a 10× solution of test compound in 10% DMSO in treatment media was added for a final compound concentration 1, 3, or 10 μM (1.0% final [DMSO]) and plates were incubated for 6 days at 37° C.

For `Cc1cc(Nc2ccc(F)cc2)nc(N2CCN(S(=O)(=O)c3cccc(CC(=O)O)c3)CC2)n1` [Compound 1411, 2-(3-((4-(4-((4-fluorophenyl)amino)-6-methylpyrimidin-2-yl)piperazin-1-yl)sulfonyl)phenyl) acetic acid], the activity at 10 µM in data set [1] (Table 9) is 117%. Further, the “AD38 Viability Normalized Result (CPAM/DMSO %) at 10 μM” value in data set [2] (Table 9) came out at 102%.

On to `COc1cccc(S(=O)(=O)N2CCN(c3cc(C)nc(Nc4ccc(C)cc4)n3)CC2)c1` [Compound 1151], for which the activity at 10 µM in data set [1] (Table 6) is 1%. In addition, the “AD38 Viability Normalized Result (CPAM/DMSO %) at 10 μM” value in data set [2] (Table 6) is recorded as 73%.

As for `O=S(=O)(c1cccc(C(F)(F)F)c1)N1CCN(c2nc(Nc3ccc(F)cc3)cc(-n3cnnc3)n2)CC1` [Compound 1313], the activity at 10 µM in data set [1] (Table 6) is 47%. Besides, the “AD38 Viability Normalized Result (CPAM/DMSO %) at 10 μM” value in data set [2] (Table 6) is reported as 93%.

On to `COc1ccc(S(=O)(=O)N2CCN(c3cccc(Nc4ccc(C)cc4)n3)CC2)cc1` [Compound 1158], for which the activity at 10 µM in data set [1] (Table 6) stood at 51%. Moreover, the “AD38 Viability Normalized Result (CPAM/DMSO %) at 10 μM” value in data set [2] (Table 6) is given as 92%.

On to `N#Cc1ccc(Nc2cc(-c3cncs3)nc(N3CCN(S(=O)(=O)c4ccc(OC(F)(F)F)cc4)CC3)n2)cc1` [Compound 1372], for which, in data set [1] (Table 9), the activity at 10 µM amounted to 21%. Moreover, the “AD38 Viability Normalized Result (CPAM/DMSO %) at 10 μM” value in data set [2] (Table 9) was 109%.

Consider `Cc1ccc(Nc2cc(C)nc(N3CCN(S(=O)(=O)c4cc(C(=O)Nc5cc(F)c(F)c(F)c5)ccc4F)CC3)n2)cc1` [Compound 1286, 4-fluoro-3-((4-(4-methyl-6-(p-tolylamino)pyrimidin-2-yl)piperazin-1-yl)sulfonyl)-N-(3,4,5-trifluorophenyl) benzamide], for which the activity at 10 µM in data set [1] (Table 6) was 2%. The “AD38 Viability Normalized Result (CPAM/DMSO %) at 10 μM” value in data set [2] (Table 6) came out at 86%.

In the case of `COc1ccc(S(=O)(=O)N2CCN(c3cc(C)cc(Nc4ccc(C)cc4)n3)CC2)cc1` [Compound 1172], in data set [1] (Table 6), the activity at 10 µM amounted to 21%. In data set [2] (Table 6), the “AD38 Viability Normalized Result (CPAM/DMSO %) at 10 μM” value is 107%.

Turning to `O=S(=O)(c1ccc(OC(F)(F)F)cc1)N1CCN(c2nc(Nc3ccc(F)cc3)cc(-c3nccs3)n2)CC1` [Compound 1357], the “AD38 Viral Load (CpAM/DMSO %) at 10 μM” value in data set [1] (Table 9) came out at 67%. For the same compound, the “AD38 Viability Normalized Result (CPAM/DMSO %) at 10 μM” value in data set [2] (Table 9) amounted to 95%.

With `Cc1ccc(S(=O)(=O)N2CCN(c3nc(Nc4ccc(F)cc4)cc(N(C)C)n3)CC2)cc1` [Compound 1306], the activity at 10 µM in data set [1] (Table 6) came out at 22%. For the same compound, the “AD38 Viability Normalized Result (CPAM/DMSO %) at 10 μM” value in data set [2] (Table 6) was determined as 103%.

Consider `Cc1ccc(S(=O)(=O)N2CCN(c3nc(Nc4ccc(C#N)cc4)cc(-c4nccs4)n3)CC2)cc1` [Compound 1356], for which the activity at 10 µM in data set [1] (Table 9) amounted to 6%. Moreover, the “AD38 Viability Normalized Result (CPAM/DMSO %) at 10 μM” value in data set [2] (Table 9) worked out at 97%.

Consider `Cc1cc(Nc2ccc(F)cc2)nc(N2CCN(S(=O)(=O)c3ccc(OC(C)(C)C(=O)O)cc3)CC2)n1` [Compound 1403, 2-(4-((4-(4-((4-fluorophenyl)amino)-6-methylpyrimidin-2-yl)piperazin-1-yl)sulfonyl)phenoxy)-2-methylpropanoic acid], for which the activity at 10 µM in data set [1] (Table 9) was 83%. For the same compound, the “AD38 Viability Normalized Result (CPAM/DMSO %) at 10 μM” value in data set [2] (Table 9) turned out to be 100%.

As for `O=S(=O)(c1ccc(C(F)(F)F)cc1)N1CCN(c2nc(Nc3ccc(F)cc3)cc(C(F)(F)F)n2)CC1` [Compound 1391], in data set [1] (Table 9), the activity at 10 µM came out at 16%. Also, in data set [2] (Table 9), the “AD38 Viability Normalized Result (CPAM/DMSO %) at 10 μM” value is on record as 88%.

As for `Cc1cc(Nc2ccc(F)cc2)nc(N2CCN(S(=O)(=O)c3ccc(F)cc3)CC2)n1` [Compound 1347], the activity at 10 µM in data set [1] (Table 9) amounted to 2%. The “AD38 Viability Normalized Result (CPAM/DMSO %) at 10 μM” value in data set [2] (Table 9) came out at 7%.

In the case of `Cc1ccc(S(=O)(=O)N2CCN(c3nc(Oc4ccc(F)cc4)cc(C(C)C)n3)CC2)cc1` [Compound 1288], the activity at 10 µM in data set [1] (Table 6) was determined as 102%. Moreover, the “AD38 Viability Normalized Result (CPAM/DMSO %) at 10 μM” value in data set [2] (Table 6) amounted to 105%.

In the case of `N#Cc1ccc(Nc2cc(-c3nccs3)nc(N3CCN(S(=O)(=O)c4ccc(OC(F)(F)F)cc4)CC3)n2)cc1` [Compound 1364], the activity at 10 µM in data set [1] (Table 9) turned out to be 62%. In addition, the “AD38 Viability Normalized Result (CPAM/DMSO %) at 10 μM” value in data set [2] (Table 9) came to 100%.

On to `Cc1ccc(Nc2cc(C)nc(N3CCN(S(=O)(=O)c4cnc(N)nc4)CC3)n2)cc1` [Compound 1260], for which the activity at 10 µM in data set [1] (Table 6) is 78%. Further, the “AD38 Viability Normalized Result (CPAM/DMSO %) at 10 μM” value in data set [2] (Table 6) was 98%.
